Experimental data reported in patent US8129340B2, “Inhibitors of protein phosphatase 1, GADD34 and protein phosphatase 1/GADD34 complex, preparation and uses thereof” (Institut Gustave Roussy, priority 2006, dated 2012).
Peptide text beside a SMILES is read from it. * marks the point of attachment. Cbz = O=C(OCc1ccccc1)*; CH2F = FC*

Key:
CT26 cells = assay: Phagocytosis of CT26 tumour cells by dendritic cells (FACS, double positive cells); format: cell-based, BALB/c mice; settings: cells transfected with siRNA
Experimental: FIG. 3A, FIG. 3B: Correlation between tumour cell phagocytosis and CRT exposure. Tumour cells labelled with Cell Tracker Green were cultured with CD11c-expressing DC and the percentage of DC taking up tumour cells was determined (A) and correlated with the CRT surface exposure (B), measured as in FIG. 2E.
Mitoxantrone-treated or control cells were incubated with a blocking chicken anti-CRT antibody, followed by detection of phagocytosis by CD.
Cells were transfected with the indicated siRNAs and optionally treated with rCRT, followed by immunoblot (FIG. 3D) detection of surface CRT (FIG. 3E) and phagocytosis by DC (FIG. 3F). Results are triplicates (X±SD) and representative of three independent experiments. * denotes statistically significant differences using the Student t′ test at p<0.001.
BM cells were flushed from the tibias and femurs of BALB/c mice with culture medium composed of RPMI 1640 medium (Invitrogen Life Technologies) supplemented with 10% heat-inactivated FBS (Invitrogen), sodium pyruvate, 50 μM 2-ME (Sigma), 10 mM HEPES (pH 7.4), and penicillin/streptomycin (Invitrogen). After one centrifugation, BM cells were resuspended in Tris-ammonium chloride for 2 min to lyse RBC. After one more centrifugation, BM cells (1×10^6 cells/ml) were cultured in medium supplemented with 100 ng/ml recombinant mouse FLT3 ligand (R&D systems) in 6-well plates (Costar Corning). After 7 days, the non-adherent and loosely adherent cells were harvested with Versene, washed and transferred in 12-well plates (1.5×10^6 cells/plate) for cocultures with tumour cells.
In 12-well plates, […] adherent CT26 cells were labelled with Celltracker Green (Calbiochem) and then incubated with drugs. In some experiments viable CT26 were coated with 2 μg/10^6 cells of chicken anti-CRT antibody (ABR affinity bioreagents) or an isotype control for 30 min prior to washing and feeding to dendritic cells Cs. Alternatively CT26 cells were coated with 2 μg/10^6 cells of rCRT on ice for 30 min and washed twice prior to addition to dendritic cells. Cells were then harvested, washed three times with medium supplemented with FBS and cocultured with immature DC for 2 hours at a ratio of 1:1 and 1:5. At the end of the incubation, cells were harvested with versene, pooled with non-adherent cells present in the supernatant, washed and stained with CD11c-FITC antibody. Phagocytosis was assessed by FACS analysis of double positive cells. Phagocytic indexes refer to the ratio between values obtained at 4° C. and values obtained at 37° C. of co-incubation between DC and tumour cells.

CT26 colon cancer cells = assay: In vivo anti-cancer vaccination: treated tumour cells in one flank and live tumour cells in opposite flank simultaneously; set-up: species or system BALB/c mice
Experimental: FIG. 4A: In vivo anti-cancer vaccination depends on CRT. CT26 colon cancer cells were transfected with the indicated siRNAs, then treated with rCRT and/or mitoxantrone (as in FIG. 3D) and the anti-tumour response was measured by simultaneously challenging BALB/c mice with mitoxantrone treated tumour cells in one flank and untreated live tumour cells in the opposite flank.
FIG. 4D: CRT-mediated amelioration of the immune response against etoposide-treated tumour cells. CT26 cells were treated for 24 h with etoposide (or PBS) and rCRT was optionally absorbed to the cell surface (inserts), followed by simultaneous injection of the etoposide ±rCRT-treated tumour cells and live tumour cells in opposite flanks and monitoring of tumour growth.
(§1) Tumours were evaluated weekly, using a caliper.

CT26 tumour cells [1] = assay: Local immune response: tumour cells injected into foot pad, IFN-γ secretion by draining popliteal lymph node cells (ELISA); format: in vivo, Balb/c mice; settings: cells injected into the foot pad
Experimental: FIG. 4B: Priming of T cell responses depending on CRT. CT26 tumour cells were left untransfected or transfected with the indicated siRNAs, then treated with medium alone, mitomycin C or mitoxantrone and injected into the right food pad of Balb/c mice. Five days later, mononuclear cells from the draining popliteal lymph nodes were challenged with freeze-thawed CT26 cells, and IFN-γ secretion was assessed at 72 hrs.
FIG. 4C: Exogenous supply of CRT enhances the immunogenicity of CRT-negative dying cells. CT26 cells lacking CRT expression after depletion of CRT with a siRNA and mitoxantrone treatment or after mitomycin treatment were coated with rCRT (inserts) and then injected in the food pad, followed by assessment of the IFN-γ secretion by cells from the draining lymph nodes as in FIG. 4B.
as §1

CT26 tumour cells [2] = assay: Anti-tumour vaccination: dying treated CT26 cells injected in one flank, later challenge with live tumour cells; format: in vivo, BALB/c mice; settings: for induction of immunogenic cell death by the inhibitor alone: without cell death inducer
cell surface CRT = assay: Fluorescence detection of cell surface CRT on CT26 cells (cytofluorometry); format: cell-based, murine; settings: agent alone; for induction of ecto-CRT and/or ecto-Erp57: tumour cells
Experimental: FIG. 1SA, FIG. 1SB: Kinetics of CRT exposure. CT26 cells were treated with mitoxantrone for the indicated period, followed by immunofluorescence staining with a CRT-specific antibody and cytofluorometric analysis.
FIG. 2E: Correlation between CRT exposure and immunogenicity. The surface exposure of CRT was determined by immunofluorescence cytometry while gating on viable (propidium iodine-negative) cells (inserts) and was correlated with the immunogenicity of cell death (as determined in FIG. 1). CO, control; Tg, thapsigargin; Tu, tunicamycin.
FIG. 5E: Kinetics of CRT exposure determined by FACS analysis after incubation of cells with the indicated agents.
FIG. 5F-FIG. 5G: PP1/GADD34 inhibitors render cell immunogenic via CRT. Tumour cells were first transfected with a control siRNA or a CRT-specific siRNA and then treated in vitro with etoposide, alone or in combination with PP1/GADD34 inhibitors. […] The results represent the % of tumour free mice (comprising a total of 12 to 18 mice per group).
CT26 cells (on a glass slide or in 12-well plates) were first washed with FACS buffer (1×PBS, 5% fetus bovine serum, and 0.1% sodium azide) and then incubated with rabbit anti-mouse CRT antibody (1:100, Stressgen) in FACS buffer at 4° C. for 30 min. Cells reacted with anti-rabbit IgG (H+L) Alexa fluor 488-conjugates (1:500) in FACS buffer at 4° C. for 30 min. After washing three times with FACS buffer, surface CRT was detected by cytofluorometric analysis on a FACS Vantage. In some experiments, cells were fixed with 4% paraformaldehyde, counterstained with Hoechst (2 μM; Sigma), followed by fluorescence microscopic assessment with a Leica IRE2 microscope equipped with a DC300F camera.

CT26 tumours [3] = assay: Intratumoural treatment of established CT26 tumours in immunocompetent mice; format: in vivo, BALB/c mice (wild type)
CT26 tumours [4] = assay: Intratumoural treatment of established CT26 tumours in immunodeficient mice; format: in vivo, athymic nu/nu Balb/c mice
CRT [5] = assay: CRT exposure on tumour cell lines of murine origin (MCA205, B16F10, J558); format: cell-based
CRT [6] = assay: CRT exposure on tumour cell lines of human origin (HeLa, A549, HCT116); format: cell-based
calreticulin [7] = assay: Calreticulin exposure by immunofluorescence staining and flow cytometry, HCT116 cells; format: cell-based, human; settings: 2 hours
Experimental: (§2) HCT116 cells (FIG. 7A) or CT26 cells (FIG. 7B) were cultured in complete mediums supplemented with 10% fetal calf serum alone or in the presence of the control peptide (VKKKKIKREIKI-lkaravafsekv) (SEQ ID NO: 17) or the PP1/GADD34 inhibitory peptide (VKKKKIKREIKI-lkarkvrfsekv, SEQ ID NO: 4. denominated PP1 peptide) for 2 hours. Cells were washed twice with PBS and fixed in PFA (4% w/v) for 5 min. Cells were stained with an antibody against calreticulin (pAb from Abeam, ab2907) at 1:200 dilution or isotype control, in staining buffer (PBS, 1% FCS) for 30 min on ice, followed by washing. An anti-rabbit Alexa fluor 488 immunoglobulin conjugate (Molecular Probes-Invitrogen) diluted at 1:500 was added for an additional 30 min on ice before washing and analysed by flow cytometry (FACScan, Becton Dickinson). Propidium Iodide (50 μg/ml, Becton Dickinson) was added to the samples to label and exclude permeabilized (dead) cells.

calreticulin [8] = assay: Calreticulin exposure by immunofluorescence staining and flow cytometry, CT26 cells (peptide test); format: cell-based, murine; settings: 2 hours
Experimental: as §2

[9] = dying CT26 cells treated with agent injected into one flank, live tumour cells in opposite flank 8 days later

5′-rCrCrGrCUrGrGrGUrCrGrArAUrCrRrArATT-3′ [CRT-specific siRNA]
phagocytosis of anthracyclin-treated tumour cells by DC after siRNA knockdown of CRT (CT26 cells): suppressed the phagocytosis of anthracyclin-treated tumour cells
immunogenicity of mitoxantrone-treated CT26 cells (efficacy of anti-tumour vaccination) (CT26 colon cancer cells; cells injected into the flank of Balb/c mice): compromised the immunogenicity of mitoxantrone-treated CT26 cells
immunogenicity of mitoxantrone-treated CT26 cells (interferon-γ production by T cells from popliteal lymph node) (CT26 tumour cells [1]): compromised the immunogenicity of mitoxantrone-treated CT26 cells

CCCCCCCCCCCCC/C=C/[C@@H](O)[C@H](CO)NC(C)=O [C2 ceramide, C2-ceramide]
immunogenicity of cell death (protection against tumour growth, anti-tumour vaccination) (CT26 tumour cells [2]; [9]): failed to induce immunogenic apoptosis

CCOc1ccc(-c2nc3ccc(-c4nc5ccc(N6CCN(C)CC6)cc5[nH]4)cc3[nH]2)cc1 [Hoechst 33342]
immunogenicity of cell death (protection against tumour growth, anti-tumour vaccination) (CT26 tumour cells [2]; [9]): failed to induce immunogenic apoptosis

COC(=O)C[C@H](NC(=O)[C@H](C)NC(=O)[C@@H](NC(=O)OCc1ccccc1)C(C)C)C(=O)CF [Z-VAD-fmk] (Cbz-Val-Ala-Asp(OMe)-CH2F)
effect on immunogenicity of doxorubicin-elicited cell death (CT26 tumour cells [2]; combined with doxorubicin): reduces the immunogenicity of doxorubicin-elicited cell death

C[C@H]1CCC/C=C/[C@@H]2C[C@H](O)C[C@H]2[C@H](O)/C=C/C(=O)O1 [brefeldin, brefeldin A]
immunogenicity of cell death (protection against tumour growth, anti-tumour vaccination) (CT26 tumour cells [2]; [9]): failed to induce immunogenic apoptosis

COC[C@@H]([C@H](O)[C@H](O)C(=O)NCC[C@H](C)c1nc(/C=C/C[C@@H]2O[C@]3(C[C@@H](O)[C@@H]2C)O[C@H]([C@H](C[C@H](O)[C@H](C)[C@H](O)[C@H](C)/C=C(C)/C(C)=C/C=C/C(C)=C\C#N)OC)[C@H](OP(=O)(O)O)C3(C)C)co1)N(C)C [calyculin A]
induction of immunogenic cell death by the inhibitor alone (CT26 tumour cells [2]): not sufficient to induce immunogenic cell death
induction of CRT exposure at the cell surface (cell surface CRT): efficiently induced

CC[C@@]1(O)C(=O)OCc2c1cc1n(c2=O)Cc2cc3ccccc3nc2-1 [camptothecin]
immunogenicity of cell death (protection against tumour growth, anti-tumour vaccination) (CT26 tumour cells [2]; [9]): failed to induce immunogenic apoptosis

COc1cc([C@@H]2c3cc4c(cc3[C@@H](O[C@@H]3O[C@@H]5CO[C@@H](C)O[C@H]5[C@H](O)[C@H]3O)[C@H]3COC(=O)[C@H]23)OCO4)cc(OC)c1O [etoposide]
immunogenicity of cell death (protection against tumour growth, anti-tumour vaccination) (CT26 tumour cells [2]; [9]): failed to induce immunogenic apoptosis
induction of ecto-CRT and/or ecto-Erp57 (cell surface CRT): fail to induce ecto-CRT and/or ecto-Erp57
immunogenicity of sham-coated etoposide-treated cells (CT26 colon cancer cells; sham-coated cells treated with etoposide): poorly immunogenic
therapeutic effect of single agent on established tumours, immunocompetent mice (CT26 tumours [3]; mouse, in vivo): no major therapeutic effect
therapeutic effect of single agent on established tumours, nu/nu mice (CT26 tumours [4]; mouse, in vivo): no major therapeutic effect

CC(=O)[C@]1(O)Cc2c(O)c3c(c(O)c2[C@@H](O[C@H]2C[C@H](N)[C@H](O)[C@H](C)O2)C1)C(=O)c1ccccc1C3=O [idarubicin]
immunogenicity of cell death (protection against tumour growth, anti-tumour vaccination) (CT26 tumour cells [2]; [9]): elicited immunogenic cell death

CO[C@@]12[C@H](COC(N)=O)C3=C(C(=O)C(C)=C(N)C3=O)N1C[C@@H]1N[C@@H]12 [mitomycin C]
immunogenicity of cell death (protection against tumour growth, anti-tumour vaccination) (CT26 tumour cells [2]; mouse, in vivo): failed to induce immunogenic apoptosis
induction of CRT exposure at the cell surface (cell surface CRT): cannot promote CRT exposure on tumor cell surface
induction of ecto-CRT and/or ecto-Erp57 (cell surface CRT): fail to induce ecto-CRT and/or ecto-Erp57
therapeutic effect of single agent on established tumours, immunocompetent mice (CT26 tumours [3]; mouse, in vivo): no major therapeutic effect
therapeutic effect of single agent on established tumours, nu/nu mice (CT26 tumours [4]; mouse, in vivo): no major therapeutic effect

O=C(/C=C/c1ccccc1)NC(NC(=S)Nc1cccc2cccnc12)C(Cl)(Cl)Cl (centres unmarked) [salubrinal]
induction of immunogenic cell death by the inhibitor alone (CT26 tumour cells [2]): not sufficient to induce immunogenic cell death
induction of CRT exposure at the cell surface (cell surface CRT): efficiently induced
CRT exposure on murine tumour cell lines (CRT [5]): induced CRT exposure
CRT exposure on human tumour cell lines (CRT [6]): induced CRT exposure
therapeutic effect combined with a cell death inducer (etoposide or mitomycin C), immunocompetent mice (CT26 tumours [3]; intratumoural injection with etoposide or mitomycin C): stable disease or complete tumour regression
therapeutic effect of single agent on established tumours, immunocompetent mice (CT26 tumours [3]; single intratumoural injection, 14-day-old CT26 tumours): no major therapeutic effect
therapeutic effect of single agent on established tumours, nu/nu mice (CT26 tumours [4]; single intratumoural injection): no major therapeutic effect

C/C=C(/C)C(=O)O[C@H]1C(C)=C2[C@H]([C@@H]1OC(=O)CCCCCCC)[C@@](C)(OC(C)=O)C[C@H](OC(=O)CCC)[C@@]1(O)[C@H]2OC(=O)[C@@]1(C)O [thapsigargin]
immunogenicity of cell death (protection against tumour growth, anti-tumour vaccination) (CT26 tumour cells [2]; [9]): failed to induce immunogenic apoptosis

VKKKKIKREIKI-lkaravafsekv (VKKKKIKREIKILKARAVAFSEKV; Artificial sequence including a fragment of GADD34 and a translocation motif) [mutant control peptide]
exposure of calreticulin, HCT116 cells (calreticulin [7]): did not induce calreticulin exposure
exposure of calreticulin, CT26 cells (calreticulin [8]): did not induce calreticulin exposure

tunicamycin
immunogenicity of cell death (protection against tumour growth, anti-tumour vaccination) (CT26 tumour cells [2]; [9]): failed to induce immunogenic apoptosis
